In patent publication US10676504B2 (Colorado State University Research Foundation, priority 2015, dated 2020):
Where two headings read alike, the source gives them in different places. One block for each compound: values may come before it.

Tests used:
HDAC3/NCor2 = target: T1, HDAC3/NCor2 (Homo sapiens, UniProt O15379); test: HDAC biochemical assay (Example 16)
T1 construct: recombinant, full-length HDAC protein; purchased BPS Biosciences
Procedure: Thus, small-molecule inhibitors were arrayed at twelve-point dose-response (3-fold increments) in 384-well library plates and transferred by robotic pin device to replicate assay plates containing assay buffer under reducing conditions (TCEP 200 μM). A liquid handling device then transferred a tripeptide substrate terminating in acetyl-lysine and amide conjugated to 4-methyl-7-aminocoumarin (AMC), recombinant human histone deacetylase (BPS Bioscience, San Diego, Calif.), and recombinant human trypsin (Sigma-Aldrich, St. Louis, Mo.). Following deacetylase hydrolysis of acetyl-lysine, trypsin cleavage liberated the AMC fluorophore. Kinetic (fluorescence per unit time) and end-point (total fluorescence) data were captured by a multilabel plate reader. Replicate data were analyzed by curve-fit using logistic regression (Spotfire Decision-Site).

HDAC2 [1] = target: T2, HDAC2 (Homo sapiens, UniProt Q92769); test: HDAC biochemical assay of P5-P12 (Table P1); design: The recombinant, full-length HDAC protein (BPS Biosciences) was incubated; purchased BPS Biosciences
HDAC1 = HDAC1 (Homo sapiens, UniProt Q13547); test: HDAC biochemical assay of P5-P12 (Table P1); design: The recombinant, full-length HDAC protein (BPS Biosciences) was incubated; purchased BPS Biosciences
HDAC3 = target: T3, HDAC3 (Homo sapiens, UniProt O15379); test: HDAC biochemical assay of P5-P12 (Table P1)
T3 construct: The recombinant, full-length HDAC protein (BPS Biosciences) was incubated; purchased BPS Biosciences

HDACs 1-3 = test: HDAC biochemical assay of P5-P12, summary statements
HDAC2 [2] = target: T2, HDAC2; test: HDAC2 inhibition, trypsin-coupled kinetic fluorescence homogeneous assay (Example 10); type: biochemical; design: The recombinant, full-length HDAC protein (BPS Biosciences) was incubated; purchased BPS Biosciences; settings: Conc (uM); logistic curve fit of activity versus concentration; some fits reached max iterations; read-out: X50
Procedure: To measure the inhibitory effect on deacetylase function in vitro, a continuous kinetic biochemical assay miniaturized to 384-well plate format was optimized.
Fluorescence measurements were obtained in real-time on a Varioskan microtiter plate reader (Thermo).
A biochemical study of HDAC2 inhibition was carried out using the trypsin-coupled, kinetic fluorescence homogeneous assay described above.

NCI-60 cancer cell lines [3] = test: cells
Source text: (§1) All compounds submitted for screening were initially tested at a single high dose (10^-5 M) against the fill NCI 60 cell panel. Only compounds which satisfied pre-determined threshold inhibition criteria in a minimum number of cell lines progressed to a second round of testing utilizing a more comprehensive 5-dose inhibition assay. The threshold inhibition criteria for progression to the 5-dose assays were selected to efficiently capture compounds with anti-proliferative activity based on historical DTP screening data.
(§2) Concentrations for G150, IC50, TGI, and LC50 were calculated for all cell lines tested, and heat plots were prepared.

colon cancer cell lines [4] = tested on: colon cancer cell lines
Source text: as §1, §2

colon cancer cell lines [5] = test: cells; settings: read-out: Average Concentration (M), LC50, Colon
Source text: as §1, §2

melanoma cell lines = test: cells; settings: read-out: Average Concentration (M), LC50, Melanoma
Source text: as §1, §2

NCI-60 cancer cell lines [6] = settings: five-dose
Source text: as §1, §2

[7] = read-out: GI50 concentrations (M), order of magnitude

T2 sequence (Q92769 whole entry): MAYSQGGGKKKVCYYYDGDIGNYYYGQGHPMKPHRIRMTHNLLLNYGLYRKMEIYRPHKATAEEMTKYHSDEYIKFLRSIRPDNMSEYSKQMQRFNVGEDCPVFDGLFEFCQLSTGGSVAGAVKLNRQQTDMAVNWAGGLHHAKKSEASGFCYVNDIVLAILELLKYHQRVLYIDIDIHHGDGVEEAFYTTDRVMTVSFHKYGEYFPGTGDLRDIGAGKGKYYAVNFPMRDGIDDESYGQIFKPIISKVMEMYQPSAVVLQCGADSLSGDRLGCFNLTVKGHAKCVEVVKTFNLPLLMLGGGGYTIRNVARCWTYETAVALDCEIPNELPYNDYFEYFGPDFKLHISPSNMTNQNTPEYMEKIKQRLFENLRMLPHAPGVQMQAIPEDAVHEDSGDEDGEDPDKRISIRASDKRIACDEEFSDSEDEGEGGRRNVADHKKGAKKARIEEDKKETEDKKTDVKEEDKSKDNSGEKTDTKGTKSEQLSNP
T3 sequence (O15379 whole entry): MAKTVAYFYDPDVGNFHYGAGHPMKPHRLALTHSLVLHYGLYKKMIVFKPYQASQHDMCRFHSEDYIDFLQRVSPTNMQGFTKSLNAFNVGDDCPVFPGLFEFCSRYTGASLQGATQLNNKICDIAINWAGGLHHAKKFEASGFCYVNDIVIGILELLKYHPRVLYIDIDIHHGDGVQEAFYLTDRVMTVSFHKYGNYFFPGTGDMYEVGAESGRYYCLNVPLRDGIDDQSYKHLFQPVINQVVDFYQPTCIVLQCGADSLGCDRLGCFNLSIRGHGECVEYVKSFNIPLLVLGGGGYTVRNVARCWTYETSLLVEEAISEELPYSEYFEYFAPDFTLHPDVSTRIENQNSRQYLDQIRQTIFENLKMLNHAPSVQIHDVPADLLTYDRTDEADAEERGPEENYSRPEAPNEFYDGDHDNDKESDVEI
T3 sequence (Q9Y618 395-489 partner limits assumed): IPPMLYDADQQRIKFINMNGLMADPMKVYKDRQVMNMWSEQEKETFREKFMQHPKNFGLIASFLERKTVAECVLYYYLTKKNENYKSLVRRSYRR
HDAC1, sequence (Q13547 whole entry): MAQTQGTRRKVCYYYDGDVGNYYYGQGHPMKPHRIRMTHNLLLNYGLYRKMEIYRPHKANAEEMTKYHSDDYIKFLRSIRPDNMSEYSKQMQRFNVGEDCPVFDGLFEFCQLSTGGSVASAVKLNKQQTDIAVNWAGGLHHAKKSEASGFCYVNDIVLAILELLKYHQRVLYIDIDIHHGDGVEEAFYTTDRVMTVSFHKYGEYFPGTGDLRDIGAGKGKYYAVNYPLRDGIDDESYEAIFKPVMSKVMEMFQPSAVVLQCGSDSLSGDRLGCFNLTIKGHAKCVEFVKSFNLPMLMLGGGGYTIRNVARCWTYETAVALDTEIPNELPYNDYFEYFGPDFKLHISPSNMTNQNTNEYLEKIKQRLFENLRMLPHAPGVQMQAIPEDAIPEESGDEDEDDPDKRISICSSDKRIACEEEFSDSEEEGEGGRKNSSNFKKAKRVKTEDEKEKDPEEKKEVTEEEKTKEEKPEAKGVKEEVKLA
T1 sequence (O15379 whole entry): as the sequence (O15379 whole entry) above
T1 sequence (Q9Y618 395-489 partner limits assumed): as the sequence (Q9Y618 395-489 partner limits assumed) above
Source text for renal cancer cell lines: as §1, §2

SMILES: CC(C)[C@@H]1NC(=O)[C@@]2(C)CSC(=N2)c2csc(n2)CNC(=O)C[C@H](/C=C/CCSC(c2ccccc2)(c2ccccc2)c2ccccc2)OC1=O
- ring closure, yield of all isomers (from CC(C)[C@H](NC(=O)[C@@]1(C)CSC(c2csc(CNC(=O)OC(C)(C)C)n2)=N1)C(=O)O[C@@H](/C=C/CCSC(c1ccccc1)(c1ccccc1)c1ccccc1)CC(=O)OCC[Si](C)(C)C, amide bond, 2 steps): 87%

SMILES: CC(C)[C@@H]1NC(=O)[C@]2(C)CSC(=N2)c2cccc(n2)CNC(=O)C[C@@H](/C=C/CCSC(c2ccccc2)(c2ccccc2)c2ccccc2)NC1=O
- ring closure, yield of all isomers (from COC(=O)C[C@@H](/C=C/CCSC(c1ccccc1)(c1ccccc1)c1ccccc1)NC(=O)[C@@H](NC(=O)[C@]1(C)CSC(c2cccc(CNC(=O)OC(C)(C)C)n2)=N1)C(C)C, amide bond, HATU/HOBt/DIPEA, acetonitrile, 0.97 mM, 3 steps): 33%

SMILES: CC(C)[C@@H]1NC(=O)[C@]2(C)CSC(=N2)c2cccc(n2)CNC(=O)C[C@@H](/C=C/CCSC(c2ccccc2)(c2ccccc2)c2ccccc2)OC1=O
- ring closure, yield of all isomers (from CC(C)[C@H](NC(=O)[C@]1(C)CSC(c2cccc(CNC(=O)OC(C)(C)C)n2)=N1)C(=O)O[C@H](/C=C/CCSC(c1ccccc1)(c1ccccc1)c1ccccc1)CC(=O)OCC[Si](C)(C)C, amide bond, HATU, acetonitrile, 0.96 mM, 18.0 h, 2 steps): 20%

SMILES: CC(C)[C@@H]1NC(=O)[C@]2(C)CSC(=N2)c2ccnc(c2)CNC(=O)C[C@@H](/C=C/CCSC(c2ccccc2)(c2ccccc2)c2ccccc2)NC1=O
- ring closure, yield of all isomers (from COC(=O)C[C@@H](/C=C/CCSC(c1ccccc1)(c1ccccc1)c1ccccc1)NC(=O)[C@@H](NC(=O)[C@]1(C)CSC(c2ccnc(CNC(=O)OC(C)(C)C)c2)=N1)C(C)C, amide bond, HATU/HOBt/DIPEA, acetonitrile, 0.97 mM, 3 steps): 32%

SMILES: CC(C)[C@@H]1NC(=O)[C@]2(C)CSC(=N2)c2ccnc(c2)CNC(=O)C[C@@H](/C=C/CCSC(c2ccccc2)(c2ccccc2)c2ccccc2)OC1=O
- ring closure, yield of all isomers (from CC(C)[C@H](NC(=O)[C@]1(C)CSC(c2ccnc(CNC(=O)OC(C)(C)C)c2)=N1)C(=O)O[C@H](/C=C/CCSC(c1ccccc1)(c1ccccc1)c1ccccc1)CC(=O)OCC[Si](C)(C)C, amide bond, HATU/HOBt/DIPEA, acetonitrile, 1.0 mM, 18.0 h, 2 steps): 23%

SMILES: CC(C)[C@@H]1NC(=O)[C@]2(C)CSC(=N2)c2coc(n2)CNC(=O)C[C@@H](/C=C/CCSC(c2ccccc2)(c2ccccc2)c2ccccc2)OC1=O
- ring closure, yield of all isomers (from CC(C)[C@H](NC(=O)[C@]1(C)CSC(c2coc(CNC(=O)OC(C)(C)C)n2)=N1)C(=O)O[C@H](/C=C/CCSC(c1ccccc1)(c1ccccc1)c1ccccc1)CC(=O)OCC[Si](C)(C)C, amide bond, T3P, DCM, 0.99 mM, 2 steps): 35%

SMILES: CC(C)[C@@H]1NC(=O)[C@]2(C)CSC(=N2)c2csc(n2)CNC(=O)C[C@@H](/C=C/CCSC(c2ccccc2)(c2ccccc2)c2ccccc2)NC1=O
- ring closure, yield of all isomers (from COC(=O)C[C@@H](/C=C/CCSC(c1ccccc1)(c1ccccc1)c1ccccc1)NC(=O)[C@@H](NC(=O)[C@]1(C)CSC(c2csc(CNC(=O)OC(C)(C)C)n2)=N1)C(C)C, amide bond, HATU/iPr2NEt, MeCN, 0.96 mM, 3 steps): 50%

SMILES: C[C@@]12CSC(=N1)c1csc(n1)CNC(=O)C[C@@H](/C=C/CCSC(c1ccccc1)(c1ccccc1)c1ccccc1)OC(=O)[C@@H]1CCCN1C2=O
- ring closure, yield of all isomers (from CC(C)(C)OC(=O)NCc1nc(C2=N[C@](C)(C(=O)N3CCC[C@H]3C(=O)O[C@H](/C=C/CCSC(c3ccccc3)(c3ccccc3)c3ccccc3)CC(=O)OCC[Si](C)(C)C)CS2)cs1, amide bond, HATU/iPr2NEt, MeCN, 0.83 mM, 2 steps): 43%

SMILES: CC(C)[C@@H]1NC(=O)[C@]2(C)CSC(=N2)c2csc(n2)CNC(=O)C[C@@H](/C=C/CCCC(=O)Nc2ccccc2N)OC1=O [Benzamide (12b)]
- IC50 (HDAC3/NCor2): 14000 nM

- IC50 (HDAC2 [1]; Table P1): 350 nM
- IC50 (HDAC1; Table P1): 204 nM
- IC50 (HDAC3; Table P1): 332 nM
SMILES: CCCCCCCC(=O)SCCC=CC1CC(=O)NCc2cccc(n2)C2=NC(C)(CS2)C(=O)NC(C(C)C)C(=O)O1 (centres unmarked) [Compound P5, Depsipeptide Pyridyl “IN”]

- IC50 (HDAC2 [1]; Table P1): 655 nM
- IC50 (HDAC1; Table P1): 340 nM
- IC50 (HDAC3; Table P1): 320 nM
SMILES: CCCCCCCC(=O)SCCC=CC1CC(=O)NCc2cc(ccn2)C2=NC(C)(CS2)C(=O)NC(C(C)C)C(=O)O1 (centres unmarked) [Compound P7, Depsipeptide Pyridyl “OUT”]

- IC50 (HDAC2 [1]; Table P1): 472 nM
- IC50 (HDAC1; Table P1): 340 nM
- IC50 (HDAC3; Table P1): 332 nM
SMILES: CCCCCCCC(=O)SCCC=CC1CC(=O)NCc2cccc(n2)C2=NC(C)(CS2)C(=O)NC(C(C)C)C(=O)N1 (centres unmarked) [Compound P9, Peptide Isostere Pyridyl “IN”]

- IC50 (HDAC2 [1]; Table P1): 69.8 nM
- IC50 range in words for HDACs 1-3 (HDACs 1-3): double-digit nM range
- IC50 (HDAC1; Table P1): 42 nM
- IC50 (HDAC3; Table P1): 42.5 nM
SMILES: CC(C)[C@@H]1NC(=O)[C@]2(C)CSC(=N2)c2cccc(n2)CNC(=O)C[C@@H](/C=C/CCS)NC1=O [Compound P10, Peptide Isostere Pyridyl “IN” Thiol]

- IC50 (HDAC2 [1]; Table P1): 1240 nM
- IC50 range in words for HDACs 1-3 (HDACs 1-3): high nM-μM range
- IC50 (HDAC1; Table P1): 817 nM
- IC50 (HDAC3; Table P1): 846 nM
SMILES: CCCCCCCC(=O)SCC/C=C/[C@@H]1CC(=O)NCc2cc(ccn2)C2=N[C@@](C)(CS2)C(=O)N[C@@H](C(C)C)C(=O)N1 [Compound P11, Peptide Isostere Pyridyl “OUT”]

SMILES: CCCCCCCC(=O)SCC/C=C/[C@@H]1CC(=O)NCc2nc(cs2)C2=N[C@@](C)(CS2)C(=O)N[C@@H](C(C)C)C(=O)N1 [Largazole peptide isostere]
- IC50 (HDAC2 [1]): 825 nM
- IC50 (HDAC1): 544 nM
- IC50 (HDAC3): 1150 nM

SMILES: CC(=O)N[C@@H](CC(C)C)C(=O)N[C@@H](CC(C)C)C(=O)N[C@H](C=O)CCCNC(=N)N [Leupeptin, reference compound]
- IC50 (HDAC2 [2]): 0.308 µM

- IC50 (HDAC2 [2]): 0.0785 µM
SMILES: CC(C)[C@@H]1NC(=O)[C@]2(C)CSC(=N2)c2csc(n2)CNC(=O)C[C@@H](/C=C/CCCCS)OC1=O [ab6_162alr1 n + 2 thiol]

SMILES: CCCCCCCC(=O)SCC/C=C/[C@@H]1CC(=O)NCc2cccc(n2)C2=N[C@@](C)(CS2)C(=O)N[C@@H](C(C)C)C(=O)O1 [compound of formula bb]
- GI50 (NCI-60 cancer cell lines [3]; read-out: Average Concentration (M), GI50): 7.62e-08 M
- Total Impacted Cell Lines (n), LC50, Colon (colon cancer cell lines [4]): 2
- Percent of Cell Lines Impacted (%), LC50, Colon (colon cancer cell lines [4]; five-dose): 29%
- Total Impacted Cell Lines (n), LC50, Renal (renal cancer cell lines): 2
- Percent of Cell Lines Impacted (%), LC50, Renal (renal cancer cell lines; five-dose): 25%
- CC50 (colon cancer cell lines [5]): 1.29e-05 M
- CC50 (melanoma cell lines): 7.01e-07 M
- Percent of Cell Lines Impacted (%), GI50 (NCI-60 cancer cell lines [6]; 50% Growth Inhibition): 100%
- Percent of Cell Lines Impacted (%), LC50 (NCI-60 cancer cell lines [6]; 50% Lethal Concentration reached): 12%
- Percent of Cell Lines Impacted (%), TGI (NCI-60 cancer cell lines [6]; Total Growth Inhibition): 47%
- Total Impacted Cell Lines (n), TGI (NCI-60 cancer cell lines [6]; Total Growth Inhibition): 27

SMILES: CCCCCCCC(=O)SCC/C=C/[C@@H]1CC(=O)NCc2nc(cs2)C2=N[C@@](C)(CS2)C(=O)N[C@@H](C(C)C)C(=O)N1 [drawing 78]
- GI50 (NCI-60 cancer cell lines [3]; [7]): 1e-07 M

SMILES: CCCCCCCC(=O)SCC/C=C/[C@@H]1CC(=O)NCc2cccc(n2)C2=N[C@@](C)(CS2)C(=O)N[C@@H](C(C)C)C(=O)O1 [drawing 79]
- GI50 (NCI-60 cancer cell lines [3]; [7]): 1e-08 M
